This is an account of results in patent US20250332249A1, “CYTOM[…] CELL EPITOPES AND USES THEREOF” (LA JOLLA INSTITUTE FOR IMMUNOLOGY, priority 2021, published 2025).

The test relates to PBMCs from HCMV seropositive subjects. The experiment in a line: ex vivo IFN-γ Fluorospot assay. Type of test: cell-based, human. The following applies: 19 HCMV seropositive subjects, individual peptide 10 ug/ml, 20 hr; for No. of subjects responding: IFN-γ; for Magnitude of response: IFN-γ spots (FIG. 1: SFC/10^6 PBMC; no unit in table). Summed up: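 PBMC (200,000/well, triplicate) from HCMV-seropositive donors were stimulated for 20 h at 37 °C with 15-mer peptide pools (2 ug/ml) or single peptides (10 ug/ml). IFN-γ spots were counted by Fluorospot. Positivity required ≥20 SFC/10^6 PBMC over DMSO background, stimulation index >2 and p<0.05.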

With 196 (PTWSTTVNAHNSFLH) [compound 196], the “No. of subjects responding” value is listed as 1 and the Magnitude of response is 47.

On to 197 (DRLSTLAATMCMFDY) [compound 197], for which the “No. of subjects responding” value is 1 and the Magnitude of response is reported as 53.

In the case of 198 (LFYRAVALGTLSALV) [compound 198], the “No. of subjects responding” value is listed as 3 and the Magnitude of response amounted to 2633.

In the case of 199 (SSIFTSTHRGVIVAP) [compound 199], the “No. of subjects responding” value worked out at 1 and the Magnitude of response is on record as 27.

With 200 (LSVRYLSLTAYMLLA) [compound 200], the “No. of subjects responding” value is given as 1 and the Magnitude of response was 1200.

As to 201 (TAYKAFLWKYAKKLN) [compound 201], the “No. of subjects responding” value was 1 and the Magnitude of response is listed as 503.

Turning to 202 (WKYAKKLNYHYFRLR) [compound 202], the “No. of subjects responding” value worked out at 1 and the Magnitude of response is 237.

As for 203 (VYLWYVRRQLVAFCL) [compound 203], the “No. of subjects responding” value turned out to be 3 and the Magnitude of response was 253.

Regarding 204 (FPSARDIPKQLPEQP) [compound 204], the “No. of subjects responding” value turned out to be 1 and the Magnitude of response is 27.

For 205 (VVAYVILERLWLAAR) [compound 205], the “No. of subjects responding” value is 1 and the Magnitude of response stood at 23.

As for 206 (IRRWWISVAIVIFIG) [compound 206], the “No. of subjects responding” value came to 3 and the Magnitude of response was 10480.

Take 207 (RWQFAVCAASKTATR) [compound 207]: the “No. of subjects responding” value turned out to be 1 and the Magnitude of response was determined as 50.

On to 208 (PQRLLLTALAIWQRT) [compound 208], for which the “No. of subjects responding” value came out at 1 and the Magnitude of response is 983.

As for 209 (PWWRRLRVKRPKFPS) [compound 209], the “No. of subjects responding” value was 1 and the Magnitude of response turned out to be 240.

Take 210 (LWYLGDYGAILKIYF) [compound 210]: the “No. of subjects responding” value was determined as 1 and the Magnitude of response is given as 40.

Turning to 211 (LFCGACVITRSLLLI) [compound 211], the “No. of subjects responding” value is given as 1 and the Magnitude of response turned out to be 487.

On to 212 (MNLVMLILALWAPVA) [compound 212], for which the “No. of subjects responding” value turned out to be 1 and the Magnitude of response was 553.

With 214 (MLVVTVFDTTRLFEI) [compound 214], the “No. of subjects responding” value is 1 and the Magnitude of response turned out to be 840.

As to 215 (VCAFCWLVLPHRLEQ) [compound 215], the “No. of subjects responding” value was 1 and the Magnitude of response came to 1960.

For 216 (VSVLYFMPSEPGSAH) [compound 216], the “No. of subjects responding” value is 1 and the Magnitude of response turned out to be 177.

Take 217 (VFQKTLSMLQGLYLR) [compound 217]: the “No. of subjects responding” value is 2 and the Magnitude of response came to 327.

With 218 (GLYLRQYDPPALRTY) [compound 218], the “No. of subjects responding” value stood at 2 and the Magnitude of response amounted to 633.

In the case of 219 (WFLVMREQAAIPQIY) [compound 219], the “No. of subjects responding” value is 4 and the Magnitude of response is listed as 1100.

With 220 (QIYARSLAADYLCCD) [compound 220], the “No. of subjects responding” value came to 1 and the Magnitude of response was found to be 33.

In the case of 221 (DFRDLLNFIRQRLCC) [compound 221], the “No. of subjects responding” value is listed as 1 and the Magnitude of response was determined as 30.

Turning to 222 (PSQEILLLCARHLDE) [compound 222], the “No. of subjects responding” value was 3 and the Magnitude of response was determined as 110.

For 223 (TDCWPFEVAPAARLA) [compound 223], the “No. of subjects responding” value is reported as 2 and the Magnitude of response is on record as 1637.

As to 224 (LFRAGLMKVYVRRRY) [compound 224], the “No. of subjects responding” value came out at 1 and the Magnitude of response is recorded as 870.

For 225 (VVFMGRFSRVYAYDT) [compound 225], the “No. of subjects responding” value came to 1 and the Magnitude of response is 70.

As to 226 (EKYMVLVSHNLDELA) [compound 226], the “No. of subjects responding” value was 1 and the Magnitude of response came out at 20.

For the substance 227 (PRLHCLVTTRSSTRE) [compound 227], the “No. of subjects responding” value stood at 1 and the Magnitude of response stood at 1277.

As to 228 (LRYKWLIRKDRFIVR) [compound 228], the “No. of subjects responding” value stood at 1 and the Magnitude of response was 3247.

For 229 (TNIMLQVSNVTNHTL) [compound 229], the “No. of subjects responding” value was 1 and the Magnitude of response is reported as 58.

As for 230 (IVVGLPFFLEYAKHH) [compound 230], the “No. of subjects responding” value turned out to be 2 and the Magnitude of response turned out to be 1250.

Turning to 231 (YNRMVRFIINYVGKW) [compound 231], the “No. of subjects responding” value turned out to be 1 and the Magnitude of response was found to be 23.

In the case of 232 (ITFCLYVGQFLAYVR) [compound 232], the “No. of subjects responding” value was found to be 1 and the Magnitude of response is listed as 27.

With 233 (HDPLGLTRFIMRQLM) [compound 233], the “No. of subjects responding” value amounted to 1 and the Magnitude of response is recorded as 473.

For the substance 234 (FIMRQLMMYPLVLPF) [compound 234], the “No. of subjects responding” value was found to be 1 and the Magnitude of response is 530.

Consider 235 (GLVYRELHDFYGYLQ) [compound 235], for which the “No. of subjects responding” value is 1 and the Magnitude of response came to 963.
